Consider 26 compounds from patent US20240366598A1, “GLUCOSE-DEPENDENT INSULINOTROPIC POLYPEPTIDE RECEPTOR ANTAGONISTS AND USES THEREOF” (Pfizer Inc., priority 2023, published 2024).

Each structure is given as a SMILES string. Structures can show the parent of a compound that is named as a salt.

The target of the test is T1, human Glucose-dependent Insulinotropic Polypeptide Receptor (hGIPR) (Homo sapiens, UniProt P48546).
T1 sequence (P48546 22-466): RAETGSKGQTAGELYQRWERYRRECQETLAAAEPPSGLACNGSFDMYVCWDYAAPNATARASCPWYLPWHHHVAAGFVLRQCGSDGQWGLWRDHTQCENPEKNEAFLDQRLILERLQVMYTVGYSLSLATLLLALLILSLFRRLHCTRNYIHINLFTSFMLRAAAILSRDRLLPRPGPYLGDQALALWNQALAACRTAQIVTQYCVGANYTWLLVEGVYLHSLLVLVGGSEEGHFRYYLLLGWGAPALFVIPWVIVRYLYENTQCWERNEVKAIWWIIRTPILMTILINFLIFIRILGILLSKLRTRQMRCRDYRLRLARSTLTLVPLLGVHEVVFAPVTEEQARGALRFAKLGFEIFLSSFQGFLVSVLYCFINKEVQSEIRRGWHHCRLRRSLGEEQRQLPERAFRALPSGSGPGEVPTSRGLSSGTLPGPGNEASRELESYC
The test can be described thus: Functional in vitro GIPR antagonist potency assay (cAMP HTRF, CHO-K1 cells stably expressing hGIPR, hGIP stimulation at about EC80). The following applies: geometric mean, hGIP at estimated EC80, examples marked ^2: overall geometric mean of multiple forms (including salts) tested. The class given is cell-based. In short, it runs like this:
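HTRF quantification of cAMP after stimulation with hGIP at an estimated EC80 for 30 min at 37 °C. Before stimulation, hGIPR-expressing CHO-K1 cells were exposed 2 h to test compound in IBMX-containing buffer, with 0.5% DMSO final. Percent effect is referenced to agonist alone (0%) and to 80 μM of a reference antagonist (100%), and runs required the agonist concentration to fall within the on-the-day EC50–EC90.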
As usually defined, the IC50 is the concentration that inhibits the measured activity by half. For the compound `O=C(O)c1ccc(-c2ccc(NC(=O)[C@H]3CCCN3C(=O)Nc3ccc(C(F)(F)F)cc3)cc2)cn1` [Example 196, 5-{4-[(1-{[4-(trifluoromethyl)phenyl]carbamoyl}-D-prolyl)amino]phenyl}pyridine-2-carboxylic acid], the 50% inhibitory concentration (IC50) was 49 nM.
On to `O=C(O)c1ccc(-c2ccc(NC(=O)[C@H]3CCCN3C(=O)Nc3ccc(C4(C(F)(F)F)CC4)cc3)cc2)cn1` [Example 197, 5-(4-{[1-({4-[1-(trifluoromethyl)cyclopropyl]phenyl}carbamoyl)-D-prolyl]amino}phenyl)pyridine-2-carboxylic acid], for which the IC50 was 29 nM.
For `Cc1cc(NC(=O)N2CCC[C@@H]2C(=O)Nc2ccc(-c3ccc(C(=O)O)cc3)nc2)ncc1C(C)C` [Example 198, 4-{5-[(1-{[4-methyl-5-(propan-2-yl)pyridin-2-yl]carbamoyl}-D-prolyl)amino]pyridin-2-yl}benzoic acid] the value was 69 nM; for `CC(C)c1ccc(NC(=O)N2CCC[C@@H]2C(=O)Nc2ccc(-c3ccc(C(=O)O)c(F)c3)cn2)cc1` [Example 199, 2-fluoro-4-{6-[(1-{[4-(propan-2-yl)phenyl]carbamoyl}-D-prolyl)amino]pyridin-3-yl}benzoic acid], 71 nM.
Next, `Cc1cc(-c2ccc(NC(=O)[C@H]3CCCN3C(=O)Nc3ccc(C(C)C)cc3)nc2)ccc1C(=O)O` [Example 200, 2-methyl-4-{6-[(1-{[4-(propan-2-yl)phenyl]carbamoyl}-D-prolyl)amino]pyridin-3-yl}benzoic acid]: 9.9 nM.
Consider `Cc1cc(NC(=O)N2CCC[C@@H]2C(=O)Nc2ccc(-c3ccc(C(=O)O)nc3)cn2)ccc1C(C)C` [Example 201, ammonium 6′-[(1-{[3-methyl-4-(propan-2-yl)phenyl]carbamoyl}-D-prolyl)amino][3,3′-bipyridine]-6-carboxylate], for which the IC50 was 91 nM.
With `Cc1cc(NC(=O)N2CCC[C@@H]2C(=O)Nc2ccc(-c3cccc(C(=O)O)c3)cn2)ncc1C(F)(F)F` [Example 202, 3-{6-[(1-{[4-methyl-5-(trifluoromethyl)pyridin-2-yl]carbamoyl}-D-prolyl)amino]pyridin-3-yl}benzoic acid], the 50% inhibitory concentration (IC50) was 22 nM.
For `Cc1cc(NC(=O)N2CCC[C@@H]2C(=O)Nc2ccc(-c3ccc(C(=O)O)cc3)cc2)ncc1C(F)(F)F` [Example 203, 4′-[(1-{[4-methyl-5-(trifluoromethyl)pyridin-2-yl]carbamoyl}-D-prolyl)amino][1,1′-biphenyl]-4-carboxylic acid] the value was 8.4 nM.
With `O=C(O)c1ccc(-c2ccc(NC(=O)[C@H]3CCCN3C(=O)Nc3ccc(C(F)(F)F)cc3)cc2)cc1F` [Example 204, 3-fluoro-4′-[(1-{[4-(trifluoromethyl)phenyl]carbamoyl}-D-prolyl)amino][1,1′-biphenyl]-4-carboxylic acid], the IC50 is 14 nM.
For the compound `Cc1nc(C(=O)O)ccc1-c1ccc(NC(=O)[C@H]2CCCN2C(=O)NCc2ccc(C(C)C)cc2)cc1` [Example 205, 6-methyl-5-(4-{[1-({[4-(propan-2-yl)phenyl]methyl}carbamoyl)-D-prolyl]amino}phenyl)pyridine-2-carboxylic acid], the IC50 was 14 nM.
For `Cc1nc(C(=O)O)ccc1-c1ccc(NC(=O)[C@H]2CCCN2C(=O)NCc2ccc(C(F)(F)F)cc2)cc1` [Example 206, 6-methyl-5-(4-{[1-{{[4-(trifluoromethyl)phenyl]methyl}carbamoyl)-D-prolyl]amino}phenyl)pyridine-2-carboxylic acid] the value was 14 nM; for `CC(C)c1ccc(NC(=O)N2CCC[C@@H]2C(=O)Nc2ccc(-c3ccc(C(=O)O)cc3)cn2)cc1F` [Example 207, 4-{6-[(1-{[3-fluoro-4-(propan-2-yl)phenyl]carbamoyl}-D-prolyl)amino]pyridin-3-yl}benzoic acid], 1.3 nM.
Next, `CC(C)c1ccc(NC(=O)N2CCC[C@@H]2C(=O)Nc2ccc(-c3ccc(C(=O)O)nc3)cc2)cc1F` [Example 208, 5-{4-[(1-{[3-fluoro-4-(propan-2-yl)phenyl]carbamoyl}-D-prolyl)amino]phenyl}pyridine-2-carboxylic acid]: 4.9 nM; `Cc1cc(-c2ccc(NC(=O)[C@H]3CCCN3C(=O)Nc3ccc(C(F)(F)F)cc3)cc2)ccc1C(=O)O` [Example 209, 3-methyl-4′-[(1-{[4-(trifluoromethyl)phenyl]carbamoyl}-D-prolyl)amino][1,1′-biphenyl]-4-carboxylic acid]: 7.4 nM; `O=C(O)c1ccc(-c2ccc(NC(=O)[C@H]3CCCN3C(=O)Nc3ccc(C4CCC4)cc3)nc2)cc1` [Example 210, 4-[6-({1-[(4-cyclobutylphenyl)carbamoyl]-D-prolyl}amino)pyridin-3-yl]benzoic acid]: 9.3 nM.
Next, `O=C(O)c1ccc(-c2ccc(NC(=O)[C@H]3CCCN3C(=O)Nc3ccc(C4CCC4)cc3)cc2)cn1` [Example 211, 5-[4-({1-[(4-cyclobutylphenyl)carbamoyl]-D-prolyl}amino)phenyl]pyridine-2-carboxylic acid]: 7 nM; `Cc1ccc(CNC(=O)N2CCC[C@@H]2C(=O)Nc2ccc(-c3ccc(C(=O)O)nc3C)cc2)cc1F` [Example 212, 5-{4-[(1-{[(3-fluoro-4-methylphenyl)methyl]carbamoyl}-D-prolyl)amino]phenyl}-6-methylpyridine-2-carboxylic acid]: 18 nM; `Cc1nc(C(=O)O)ccc1-c1ccc(NC(=O)[C@H]2CCCN2C(=O)Nc2cnc(C(C)C)c(F)c2)cc1` [Example 213, 5-{4-[(1-{[5-fluoro-6-(propan-2-yl)pyridin-3-yl]carbamoyl}-D-prolyl)amino]phenyl}-6-methylpyridine-2-carboxylic acid]: 90 nM.
With `CC(C)c1ccc(NC(=O)N2CCC[C@@H]2C(=O)Nc2ccc(-c3ccc(C(=O)O)c(F)c3)cc2)cc1F` [Example 214, 3-fluoro-4′-[(1-{[3-fluoro-4-(propan-2-yl)phenyl]carbamoyl}-D-prolyl)amino][1,1′-biphenyl]-4-carboxylic acid], the half-maximal inhibitory concentration (IC50) is 6.7 nM.
As to `O=C(O)c1ccc(-c2ccc(NC(=O)[C@H]3CCCN3C(=O)Nc3ccc(C(F)(F)F)c(F)c3)cn2)cc1` [Example 215, 4-{5-[(1-{[3-fluoro-4-(trifluoromethyl)phenyl]carbamoyl}-D-prolyl)amino]pyridin-2-yl}benzoic acid], the concentration for half-maximal inhibition (IC50) was 15 nM.
Next, `Cc1cc(NC(=O)N2CCC[C@@H]2C(=O)Nc2ccc(-c3ccc(C(=O)O)nc3C)cc2)ncc1C(C)C` [Example 216, 6-methyl-5-{4-[(1-{[4-methyl-5-(propan-2-yl)pyridin-2-yl]carbamoyl}-D-prolyl)amino]phenyl}pyridine-2-carboxylic acid, trifluoroacetate salt]: 65 nM; `Cc1cc(NC(=O)[C@H]2CCCN2C(=O)Nc2ccc(C(C)C)c(F)c2)ccc1-c1ccc(C(=O)O)cc1` [Example 219, 4′-[(1-{[3-fluoro-4-(propan-2-yl)phenyl]carbamoyl}-D-prolyl)amino]-2′-methyl[1,1′-biphenyl]-4-carboxylic acid]: 2.9 nM; `Cc1cc(NC(=O)N2CCC[C@@H]2C(=O)Nc2ccc(-c3ccc(C(=O)O)cc3)nc2)ncc1C(F)(F)F` [Example 222, 4-{5-[(1-{[4-methyl-5-(trifluoromethyl)pyridin-2-yl]carbamoyl}-D-prolyl)amino]pyridin-2-yl}benzoic acid]: 100 nM.
Next, `O=C(O)c1cccc(-c2ccc(NC(=O)[C@H]3CCCN3C(=O)NCc3ccc(C(F)(F)F)c(F)c3)nc2)c1` [Example 223, 3-(6-{[1-({[3-fluoro-4-(trifluoromethyl)phenyl]methyl}carbamoyl)-D-prolyl]amino}pyridin-3-yl)benzoic acid]: 51 nM; `CC(C)c1ccc(CNC(=O)N2CCC[C@@H]2C(=O)Nc2ccc(-c3cccc(C(=O)O)c3)cn2)cc1` [Example 224, 3-(6-{[1-{{[4-(propan-2-yl)phenyl]methyl}carbamoyl)-D-prolyl]amino}pyridin-3-yl) benzoic acid]: 79 nM.
For `O=C(O)c1cccc(-c2ccc(NC(=O)[C@H]3CCCN3C(=O)NCc3ccc(C(F)(F)F)cc3)nc2)c1` [Example 225, 3-(6-{[1-({[4-(trifluoromethyl)phenyl]methyl}carbamoyl)-D-prolyl]amino}pyridin-3-yl)benzoic acid] the value was 51 nM.
